# US20260325465A1, “SHP-1 INHIBITORS FOR TREATING CANCER” (MDX MANAGEMENT LLC, priority 2022, published 2026)
# Columns and labels:
# [1] = Toxicity of pulse-intermittent iSHP-1 in tumor-bearing mice; format: in vivo; conditions: three cycles of pulse-intermittent iSHP-1 with proinflammatory agents
# Text: FIGS. 10A-10B depicts pulse-intermittent iSHP-1 design and treatment schemes. In preclinical tumor models, we have tested three pulsed treatment schemes, pulses-1, -2 and -3, with iSHP-1 given once, twice or three times consecutively (1× per day) at the beginning of each cycle, and an intermittent period of 2-9 days withholding iSHP-1 treatment between cycles. The combination modalities include, but are not limited to, TLR ligands, STING activator, RT, anti-PD-1/L1 immune checkpoint blockade (αPD-1/L1), inflammatory cytokines, chemotherapies and oncolytic viruses. These combination regimens were given together with SHP-1 inhibitor or following separate dosing schedules. Murine solid tumor models with a single tumor or multi-lesions (metastases) in syngeneic mice of different backgrounds were tested. These models were established by engrafting tumors in multiple locations, and iSHP-1 treatment began when a single tumor reaches ≥200 mm^3 in size or the total tumor burden ≥300 mm^3. […]
# Throughout treatments, anti-tumoral efficacies (tumor volume changes and survival rates), adverse effects (body weight loss, proteinuria, anemia and clinical discomfort), gross organ toxicity and tissue inflammation due to toxicity, and the TME immune landscape changes were analyzed at different time points and at the terminal point. […]
# [2] = Study-2: acute adverse toxicity; format: in vivo, mice; conditions: intermittent iSHP-1 therapies
# Protocol: FIGS. 12A-12D depict that pulse-intermittent inhibition of SHP-1 (iSHP-1) combined with TLR agonists (αTLR) and/or anti-PD-L1 checkpoint inhibitor effectively treat multi-lesion MC38 colorectal carcinoma. FIG. 12A depicts the treatment scheme. Mice with bilateral MC38 tumors (s.c.) were treated for two days with TPI-1 and various combinations via i.p. or s.c. A 5-day intermittent period was given before the 2nd cycle of treatments to mice that had residue tumors. FIGS. 12B and 12C depict tumor control efficacies measured by tumor volume changes (FIG. 12B) and TME reprogramming, indicating increases in tumor killing immune populations while reduction of immunosuppression. FIG. 12D depicts acute adverse toxicity, measured by body weight, proteinuria, serum ALT level and splenomegaly.
# macrophages = assay: Macrophage cytokine production under immunosuppressive or proinflammatory stimulation with cancer cell ligation; format: cell-based
# Text: FIGS. 6A-6D depict that the inhibition of SHP-1 promotes anti-tumor effects or pro-tumor effects under different circumstances. FIG. 6A depicts that intratumoral macrophages upregulate expression of iRs (Pir-B, Siglec E, F and G, and SIRPα) along with tumor progression to late-stage large sizes. KPC pancreatic tumors of small sizes (<150 mm^3) and those grown to larger sizes (>800 mm^3) were dissociated to single cells, followed by flow cytometry analyses for cell surface protein expression on macrophages (gated F4/80+). FIG. 6B depicts that the inhibition of SHP-1 alone promotes TME immunosuppression. Excised MC38 solid tumor cubes were treated with SHP-1 inhibitor TPI-1 (100 nM) or vehicle (DMSO) in a cell culture setting. After 24 h, tumor secreting cytokines into the culture medium were assayed by ELISA.
# The SHP-1 activity in non-therapeutic solid tumors is low (see FIGS. 7A-7D), and this low activity inhibits immunosuppressive receptor signaling. […] In parallel experiments, the same SHP-1 inhibitors augmented macrophage responses to the M1 stimuli IFNγ and LPS and enhanced proinflammatory cytokine production.
# [3] = Study-1: continuous vs intermittent iSHP-1 with TLR agonists, adverse toxicity; format: in vivo, mice; conditions: i.p.
# Protocol: FIGS. 11A-11E depict the impact of continuous or intermittent iShp-1 treatment on the efficacy and adverse toxicity. FIG. 11A depicts the study design. Mice with KPC pancreatic cancer were either continuously treated with TPI-1 (1× per day) or in an intermittent fashion with gapping days between two treatments (intermittent). Three doses, 1, 3 and 10 mg/kg (i.p.), were tested and TLR agonists (CpG plus PolyI:C, each 10 μg, i.p., 1× every 3 day) was given to kickstart inflammatory response. […] Tumor imaging (FIG. 11B) and volume change records (FIG. 11C) indicate similar efficacies of iShp-1 with continuous or intermittent schemes.
# Tumor model: Single engraftment of KPC pancreatic adenocarcinoma
# Treatments & dosing strategies: i) iSHP-1—TPI-1, 1, 3, and 10 mg/kg; i.p. either 1× per day (continuous), or following an intermittent schedule depicted in FIG. 11. ii) TLR agonists (αTLR)—CpG, PolyI:C, each 10 μg; i.p. every 3 days
smiles,measurement,setting,value
O=C1C=CC(=O)C(c2cc(Cl)ccc2Cl)=C1 [TPI-1],"organ damage, anemia, splenomegaly",[1],"did not exhibit serious lung or kidney damage, anemia or splenomegaly"
same,acute adverse toxicity,[2],did not incur acute adverse toxicity
same,macrophage production of IL-12 and TNFα,macrophages; IFNγ and LPS,dose-dependently augmented macrophage proinflammatory response with increased IL-12 and TNFα
same,macrophage production of IL-10 and TGFβ,macrophages; IL-4/13 or IL-10 stimulation,dose-dependently augmented
same,"adverse effects, continuous dosing",[3]; 1× per day,"incurred acute anemia, proteinuria, splenomegaly and lung inflammation"
same,"adverse effects, intermittent dosing",[3]; intermittent,did not display or were minor
